Literature values, collected in patent publication US12571046B2, “Methods of detecting and treating multiple system atrophy” (THE TRANSLATIONAL GENOMICS RESEARCH INSTITUTE, priority 2020, dated 2026).

Assays:
[1] = tested on: conditional QKI knock-out mouse model; details: conditional QKI-KO mouse; PPARβ and RXR agonists; literature ref [82]/[96]
[2] = biological target: α-synuclein (Homo sapiens, UniProt P37840); details: in vitro; interaction at N-terminus of α-synuclein; literature ref [65]

| Compound | effect on QKI deficiency-induced demyelination [1] | effect on α-synuclein fibrillization [2] |
| --- | --- | --- |
| C[C@@H]1CN(c2ccc(OC(F)(F)F)cc2)C[C@H](C)N1S(=O)(=O)c1cccc2c1C[C@@H](C(=O)O)C2.Cc1ccc(S(=O)(=O)O)cc1 [KD3010] | alleviate QKI deficiency-induced demyelination in the mouse | – |
| Vitamin K | – | delays α-synuclein fibrillization |
| C=C(c1ccc(C(=O)O)cc1)c1cc2c(cc1C)C(C)(C)CCC2(C)C [bexarotene] | alleviate QKI deficiency-induced demyelination in the mouse | – |
